Test results from patent US8338432B2, “Derivatives of 6,7-dihydro-3H-oxazolo[3,4-a]pyrazine-5,9-dione as PDE-5 inhibitors” (Biolab Sanus Farmaceutica Ltda., priority 2010, dated 2012).
Like-named read-outs stand apart in the source and are kept apart here.

Legend:
human urether tissue = assay: Relaxation of noradrenaline-contracted human isolated urether tissue (isometric tension recording); settings: human urether contracted with noradrenaline, 0.0001-1 μM, n=3
Description: (§1) Human corpus cavernosum and urether were obtained from discarded tissues from surgeries, which were placed in ice-cold Krebs solution for rapid transport to the laboratory.
(§2) Cavernosal strips, pulmonary artery, and urether were mounted in 10 ml organ chambers containing Kreb's solution at 37° C., pH 7.4 continuously bubbled with a mixture of 95% O2 and 5% CO2. The tissues were stretched to a resting force of 5 mN and allowed to equilibrate for 60 min. Changes in isometric force were recorded using a PowerLab 4/30 data acquisition system (Chart software, version 7.0; ADInstruments, Colo. Springs, Colo.). Cumulative concentration-response curves to compound 2 (named BL 106 in FIGS. 1, 2 and 3) (0.001-10 μM) were obtained in cavernosal strips, pulmonary artery rings, and urether contracted with noradrenaline (NOR 10 μM) (Sigma, St. Louis, Mo.). Concentration response curves to compound 2 (denoted BL 106 in FIGS. 1, 2 and 3) were constructed for each sample. For pulmonary artery, concentration response curves to compound 2 were also constructed in the presence or absence of the soluble guanylate cyclase inhibitor 1H-[1,2,4]Oxadiazolo[4,3-a]quinoxalin-1-one (ODQ 10 μM) (Sigma, St. Louis, Mo.). Control rings (treated with 40 mM DMSO) were also ran in parallel with experimental strips and rings.
Noradrenaline caused a sustained contraction in the human urether tissue.

rabbit pulmonary artery = assay: Relaxation of noradrenaline-contracted rabbit isolated pulmonary artery rings (isometric tension recording)
Description: as §2, with “Male New Zealand White rabbits (2-2.5 kg) were used for penis and pulmonary artery tissues, which were excised and transferred to ice-cold Kreb's solution. Two strips and four rings were obtained from each corpus cavernosum (CC) and pulmonary artery, respectively. Cavernosal” for “Cavernosal”, “rings. Noradrenaline (3 or 10 μM) caused a sustained contraction in the rabbit pulmonary artery (17.4 mN).” for “rings.”

human corpus cavernosum = assay: Relaxation of noradrenaline-contracted human isolated corpus cavernosum (isometric tension recording); settings: human corpus cavernosum contracted with noradrenaline, 0.0001-1 μM, n=3
Description: as §1, §2
Noradrenaline caused a sustained contraction in the human corpus cavernosum.

rabbit corpus cavernosum = assay: Relaxation of noradrenaline-contracted rabbit isolated corpus cavernosum (isometric tension recording)
Description: as §2, with “Male New Zealand White rabbits (2-2.5 kg) were used for penis and pulmonary artery tissues, which were excised and transferred to ice-cold Kreb's solution. Two strips and four rings were obtained from each corpus cavernosum (CC) and pulmonary artery, respectively. Cavernosal” for “Cavernosal”, “rings. Noradrenaline (3 or 10 μM) caused a sustained contraction in rabbit corpus cavernosum (13.8 mN).” for “rings.”

[1] = read-out: pEC50 of relaxation (converted)

| Compound | Emax (human urether tissue) [%] | EC50 (human urether tissue; [1]) [nM] | Emax (rabbit pulmonary artery; Oryctolagus cuniculus, rabbit pulmonary artery rings contracted with noradrenaline, 0.001-10 μM, n=3) [%] | EC50 (rabbit pulmonary artery; Oryctolagus cuniculus, rabbit pulmonary artery rings contracted with noradrenaline, 0.001-10 μM, n=3, read-out: pEC50 of relaxation (converted)) [nM] | EC50 (rabbit pulmonary artery; Oryctolagus cuniculus, rabbit pulmonary artery rings contracted with noradrenaline, n=3, read-out: EC50 of relaxation (bracketed after pEC50) (converted)) [nM] | Emax (human corpus cavernosum) [%] | EC50 (human corpus cavernosum; [1]) [nM] | Emax (rabbit corpus cavernosum; Oryctolagus cuniculus, rabbit corpus cavernosum contracted with noradrenaline, n=3) [%] | EC50 (rabbit corpus cavernosum; Oryctolagus cuniculus, rabbit corpus cavernosum contracted with noradrenaline, n=3, read-out: EC50 of relaxation (bracketed after pEC50) (converted)) [nM] | EC50 (rabbit corpus cavernosum; Oryctolagus cuniculus, rabbit corpus cavernosum contracted with noradrenaline, n=3, read-out: pEC50 of relaxation (converted)) [nM] | sustained contraction (rabbit pulmonary artery; rabbit pulmonary artery, noradrenaline 3 or 10 μM) [mN] | sustained contraction (rabbit corpus cavernosum; rabbit corpus cavernosum, noradrenaline 3 or 10 μM) [mN] |
| --- | --- | --- | --- | --- | --- | --- | --- | --- | --- | --- | --- | --- |
| CN1CC(=O)N2C(=C(c3c[nH]c4ccccc34)OC2c2ccc3c(c2)OCO3)C1=O (racemic) [Compound 2, (R,S)-3-(1,3-benzodioxol-5-yl)-1-(1H-indol-3-yl)-7-methyl-6,7-dihydro[1,3]oxazolo[3,4-a]pyrazine-5,8-dione] | 49 | 513 | 62 | 589 | 588 | 71 | 22.4 | 91 | 1200 | 1200 |  |  |
| NC[C@H](O)c1ccc(O)c(O)c1 [Noradrenaline, noradrenaline, reference compound] |  |  |  |  |  |  |  |  |  |  | 17.4 | 13.8 |
